{"source": "patent US20150209309A1", "about": "“NACA FOR THE TREATMENT OF CHRONIC OR ACUTE COGNITIVE DYSFUNCTION” (Brighton Biotech, Inc, priority 2014, published 2015)", "key": {"[1]": {"details": "in vivo"}, "[2]": {"details": "cited from earlier work"}}}
{"smiles": "CC(=O)N[C@@H](CS)C(=O)O", "note": "[NAC, N-acetyl-L-cysteine]", "values": [{"measurement": "crossing of the blood-brain barrier", "setting": "[1]", "value": "inability to cross the blood-brain barrier"}, {"measurement": "membrane penetration / cell permeability", "setting": "[2]", "value": "low membrane penetration"}]}
